Results published in patent publication US12312599B2, “Methods, compositions, and kits for producing beige adipocytes and treating metabolic disorders” (MaineHealth, priority 2018, dated 2025).

Test system: FD-MSCs
Experiment: BODIPY lipid stain of FD-MSCs during adipogenic differentiation
Format: cell-based, human
Protocol: All assays were performed between 7 and 15 passages. For osteocyte differentiation, mature MSCs were grown in 24 well culture plates to 100% confluency in MesenCult-ACF and induced to differentiate in OsteoLife Complete Osteogenesis Medium (Lifeline Cell Technology) for 21 days prior to staining with Lifeline Alizarin Red Stain to visualize calcium deposition. For chondrocyte differentiation. For beige adipogenic precursor generation, cells were grown in 24 well culture plates to 90% confluence and treated with 5 uM SB413542 (Sigma) and 10 nM human IL-4 (Peprotech) for 2 days. For beige adipogenic induction, adipogenic precursors are differentiated for 3 days with adipogenic medium consisting of T3 (2 nM), insulin (170 nM), rosiglitazone (1 μM), SB413542 (5 uM), IBMX (0.5 mM), dexamethasone (5 μM) and indomethacin (125 μM) in EGM-2 medium (Lonza) supplemented with the BulletKit minus FGF2 (modified from^33). Thereafter, cells are maintained in adipogenic medium without IBMX, dexamethasone and indomethacin. The medium was changed every 3 days and adipocytes were fully differentiated by 9-12 days as determined by lipid accumulation and peak expression of UCP1. Cell Isolation, Expansion and Differentiation of Interscapular Brown Adipose Tissue Preadipocytes • 1. Prior to adipose cell isolation, warm DMEM, FBS and cell wash buffer to room temperature. • 2. In a laminar flow cabinet for cell culture, place 5 g of adipose tissue on a 100×20 mm dish. Suspend tissue in 1 mL of Adipose Tissue Dissociation Kit enzyme digest cocktail and finely mince with a razorblade. • 3. […] Incubate tube at 37° C. on a rotating nutator for 30 minutes. During incubation period, briefly vortex sample for 5 s in 10-minute intervals. • 5. Transfer cells to a 15 mL tube and add 5 mL of DMEM. Filter cell suspension through a 100 μm strainer into a new 15 mL tube and centrifuge at 300 g for 5 minutes to form a pellet. • 6. Remove supernatant and leave behind […] of DMEM. Resuspend cell pellet in 10 mL of DMEM containing 10% FBS and plate in a 100×20 mm dish for expansion. Agitate plate to spread cells evenly on well surface and incubate plate at 37° C. in a 5% CO2 incubator undisturbed. Change 100% of medium every day. • 7. Upon 80% confluence, split and passage cells at a ratio of 1:6. • 8. Prepare for passage by warming cell wash buffer and cell culture medium (DMEM containing 10% FBS) to room temperature. Warm TrypLE dissociation reagent to 37° C. • 9. Aspirate cell culture medium from wells and wash once with PBS. Remove PBS and add 500 μL of pre-warmed TrypLE reagent to each well of a 6 well plate. Scale TrypLE amount for larger tissue culture plates accordingly. • 10. Incubate culture plate at 37° C. for 5 minutes. […]

[1] = SB throughout the adipogenic differentiation period, day 12

NC(=O)c1ccc(-c2nc(-c3ccc4c(c3)OCO4)c(-c3ccccn3)[nH]2)cc1 [SB, SB431542]
lipid accumulation (SB for 2 days before and throughout the 12-day adipogenic differentiation): greatest amount of lipid accumulation | additional increase in lipid droplet staining (SB prior to and during differentiation, versus SB during differentiation alone): 45% | cells in culture with lipid content [1]: approximately 50% | increase in lipid content [1]: 5 fold
